What was measured:
Type in all cases: biochemical
[1] = biological target: MAPK1 (h) (Homo sapiens, UniProt P27361); assay: Kinase inhibition assay: MAPK1; conditions: 30µM Testsubstanz (100 µM ATP); read-out: Hemmung von Kinasen in % MAPK1 (h)
Excerpt: (§1) Alle Kinasen werden auf zehnfache Arbeitskonzentration vor Anwendung in dem Essay verdünnt. Die Zusammensetzung des Verdünnungspuffers ist für jede Kinase in der nachfolgenden Tabelle angegeben.
(§2) Alle Substrate werden gelöst und auf eine Stammlösung in entsalztem Wasser verdünnt.

[2] = biological target: MEK1 (h) (Homo sapiens, UniProt Q02750); assay: Kinase inhibition assay: MEK1 (coupled to MAPK2 assay); conditions: 30µM Testsubstanz (100 µM ATP); read-out: Hemmung von Kinasen in % MEK1 (h)
Sequence of MEK1 (h) (Q02750 whole entry): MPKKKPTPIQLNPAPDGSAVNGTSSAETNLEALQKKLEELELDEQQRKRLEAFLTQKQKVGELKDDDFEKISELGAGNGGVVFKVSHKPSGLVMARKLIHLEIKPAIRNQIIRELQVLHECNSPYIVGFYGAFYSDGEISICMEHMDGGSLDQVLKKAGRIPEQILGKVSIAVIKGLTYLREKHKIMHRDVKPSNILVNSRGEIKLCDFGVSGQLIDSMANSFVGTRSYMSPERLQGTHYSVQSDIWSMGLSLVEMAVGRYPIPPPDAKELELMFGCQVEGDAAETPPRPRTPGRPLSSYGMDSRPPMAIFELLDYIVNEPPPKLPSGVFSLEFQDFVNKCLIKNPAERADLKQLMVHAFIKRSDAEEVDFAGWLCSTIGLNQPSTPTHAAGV
Description: as §1, §2
MEK1 (h)(1-5 mU) in einem Endreaktionsvolumen von 25 µl wird mit 50 mM Tris pH 7.5, 0.2 mM EGTA, 0.1 % b-Mercaptoethanol, 0,01 % Brij-35, 1 µM inaktives MAPK2 (m), 10 mM MgAcetat und kaltem ATP inkubiert (Konzentration wie erforderlich). Die Reaktion wird durch Zugabe von MgATB initiiert. Nach 40-minütiger Inkubation bei Raumtemperatur werden […] dieses Inkubationsgemisches dazu verwendet, den oben beschriebenen MAPK2-Assay zu initiieren.

[3] = system: PKA (h); assay: Kinase inhibition assay (33P-ATP, P30 filter, scintillation counting): PKA; conditions: 30µM Testsubstanz (100 µM ATP); 40 min
[4] = system: ROCKII (h); assay: Kinase inhibition assay (33P-ATP, P30 filter, scintillation counting): ROCK-II; conditions: 30µM Testsubstanz (100 µM ATP); 40 min
[5] = biological target: SAPK2a (h) (Homo sapiens, UniProt Q16539); assay: Kinase inhibition assay (33P-ATP, P30 filter, scintillation counting): SAPK2a; conditions: 30µM Testsubstanz (100 µM ATP); read-out: Hemmung von Kinasen in % SAPK2a (h)
Sequence of SAPK2a (h) (Q16539 whole entry): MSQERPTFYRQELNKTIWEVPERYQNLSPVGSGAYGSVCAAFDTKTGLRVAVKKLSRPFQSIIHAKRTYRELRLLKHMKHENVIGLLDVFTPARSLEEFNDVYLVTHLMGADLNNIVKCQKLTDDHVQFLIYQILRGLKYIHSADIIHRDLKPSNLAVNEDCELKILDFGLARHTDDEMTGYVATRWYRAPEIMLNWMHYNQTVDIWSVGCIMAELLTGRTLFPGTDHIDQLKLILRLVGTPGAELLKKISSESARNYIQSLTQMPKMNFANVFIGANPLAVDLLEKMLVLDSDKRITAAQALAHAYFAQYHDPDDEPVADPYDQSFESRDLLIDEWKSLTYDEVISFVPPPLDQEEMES
Description: as §1, §2
SAPK2a (h) wird in einem Endreaktionsvolumen von 25 µl mit 25 mM Tris pH 7,5, 0.02 mM EGTA, 0.33 mg/ml Myelin-Basisprotein, 10 mM MgAcetat und [γ-^33P-ATP] inkubiert (spezifische Aktivität etwa 50 cpm/pmol, Konzentration wie erforderlich). Die Reaktion wird durch Zugabe von Mg^2+[γ-^33P-ATP] initiiert. Nach 40-minütiger Inkubation bei Raumtemperatur wird die Reaktion durch Zugabe von 5 µl einer 3 %igen Phosphorsäurelösung gestoppt. 10 µl der Reaktion werden dann auf ein P30-Filter gegeben und dreimal jeweils 5 Minuten in 50 mM Phosphorsäure und einmal in Methanol gewaschen. Anschließend wird getrocknet und eine Szintillationszählung durchgeführt.

[6] = biological target: MAPK2 (h) (Homo sapiens, UniProt P28482); assay: Kinase inhibition assay: MAPK2; conditions: 30µM Testsubstanz (100 µM ATP); read-out: Hemmung von Kinasen in % MAPK2 (h)
Sequence of MAPK2 (h) (P28482 whole entry): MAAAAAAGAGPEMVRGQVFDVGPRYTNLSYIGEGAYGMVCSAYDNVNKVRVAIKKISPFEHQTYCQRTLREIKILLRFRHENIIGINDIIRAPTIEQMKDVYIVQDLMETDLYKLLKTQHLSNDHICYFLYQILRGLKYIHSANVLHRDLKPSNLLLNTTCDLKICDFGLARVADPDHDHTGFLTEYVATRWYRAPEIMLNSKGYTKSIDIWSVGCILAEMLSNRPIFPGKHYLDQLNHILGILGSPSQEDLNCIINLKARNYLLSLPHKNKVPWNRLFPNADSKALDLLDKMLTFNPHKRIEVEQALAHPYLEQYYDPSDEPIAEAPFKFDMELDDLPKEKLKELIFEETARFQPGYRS
Excerpt: as §1, §2

[7] = biological target: GSK3β (h) (Homo sapiens, UniProt P49841); assay: Kinase inhibition assay (33P-ATP, P30 filter, scintillation counting): GSK3β; conditions: 30µM Testsubstanz (100 µM ATP); read-out: Hemmung von Kinasen in % GSK3β (h)
Sequence of GSK3β (h) (P49841 whole entry): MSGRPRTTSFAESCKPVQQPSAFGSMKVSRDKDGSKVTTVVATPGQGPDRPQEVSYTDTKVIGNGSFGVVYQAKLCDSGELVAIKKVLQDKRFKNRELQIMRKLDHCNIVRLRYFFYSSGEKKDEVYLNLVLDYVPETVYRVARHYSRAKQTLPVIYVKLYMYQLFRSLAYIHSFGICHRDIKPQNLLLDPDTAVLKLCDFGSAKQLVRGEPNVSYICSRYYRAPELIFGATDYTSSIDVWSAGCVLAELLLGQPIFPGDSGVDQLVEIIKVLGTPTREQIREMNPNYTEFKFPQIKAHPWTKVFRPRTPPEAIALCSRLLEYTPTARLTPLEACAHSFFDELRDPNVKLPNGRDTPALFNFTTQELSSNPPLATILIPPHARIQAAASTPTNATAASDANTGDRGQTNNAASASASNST
Description: as §1, §2
GSK3β (h)(5-10mU) in einem Endreaktionsvolumen von 25 µl wird mit 8 mM MOPS pH 7.0, 0.2 mM EDTA, 20 µM […](p) EDEEE (phospho GS2 Peptid), 10 mM MgAcetat und [γ-^33P-ATP] inkubiert (spezifische Aktivität etwa 500 cpm/pmol, Konzentration wie erforderlich). Die Reaktion wird durch Zugabe von Mg^2+[γ-^33P-ATP] initiiert. Nach 40-minütiger Inkubation bei Raumtemperatur wird die Reaktion durch Zugabe von 5 µl einer 3 %igen Phosphorsäurelösung gestoppt. 10 µl der Reaktion werden dann auf ein P30-Filter gegeben und dreimal jeweils 5 Minuten in 50 mM Phosphorsäure und einmal in Methanol gewaschen. Anschließend wird getrocknet und eine Szintillationszählung durchgeführt.

[8] = biological target: c-RAF (h) (Homo sapiens, UniProt P04049); assay: Kinase inhibition assay (33P-ATP, P30 filter, scintillation counting): c-RAF; conditions: 40 min; 30µM Testsubstanz (100 µM ATP); read-out: Hemmung von Kinasen in % c-RAF (h)
Sequence of c-RAF (h) (P04049 whole entry): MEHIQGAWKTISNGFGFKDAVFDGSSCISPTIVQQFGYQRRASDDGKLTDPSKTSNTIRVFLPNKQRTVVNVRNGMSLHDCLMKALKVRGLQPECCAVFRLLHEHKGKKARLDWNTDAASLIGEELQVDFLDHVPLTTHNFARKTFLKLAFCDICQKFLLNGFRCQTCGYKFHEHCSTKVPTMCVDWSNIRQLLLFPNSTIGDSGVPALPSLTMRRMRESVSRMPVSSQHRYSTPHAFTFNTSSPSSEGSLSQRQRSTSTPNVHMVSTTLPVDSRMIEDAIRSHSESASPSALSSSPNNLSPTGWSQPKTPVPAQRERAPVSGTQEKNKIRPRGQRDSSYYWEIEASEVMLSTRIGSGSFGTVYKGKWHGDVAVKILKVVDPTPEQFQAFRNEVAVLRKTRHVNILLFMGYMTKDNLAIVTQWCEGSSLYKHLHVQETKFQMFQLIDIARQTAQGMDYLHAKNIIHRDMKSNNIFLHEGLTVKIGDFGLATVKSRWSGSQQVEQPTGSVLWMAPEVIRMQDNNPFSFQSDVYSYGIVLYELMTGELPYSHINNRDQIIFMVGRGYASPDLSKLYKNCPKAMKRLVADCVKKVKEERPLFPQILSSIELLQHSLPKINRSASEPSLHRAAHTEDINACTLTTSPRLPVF
Description: as §1, §2
(§3) c-RAF (ha)(5-10 mU) in einem Endreaktionsvolumen von 25 µl wird mit 25 mM Tris pH 7.5,.0.02 mM EGTA, 0.66 mg/ml Myelin-Basisprotein, 10 mM MgAcetat und [γ-^33P-ATP] inkubiert (spezifische Aktivität etwa 50 cpm/pmol, Konzentration wie erforderlich). Die Reaktion wird durch Zugabe von Mg^2+[γ-^33P-ATP] initiiert. Nach 40-minütiger Inkubation bei Raumtemperatur wird die Reaktion durch Zugabe von 5 µl einer 3 %igen Phosphorsäurelösung gestoppt. 10 µl der Reaktion werden dann auf ein P30-Filter gegeben und dreimal jeweils 5 Minuten in 50 mM Phosphorsäure und einmal in Methanol gewaschen. Anschließend wird getrocknet und eine Szintillationszählung durchgeführt.

[9] = biological target: JNK3 (r) (Rattus norvegicus, UniProt P49187); assay: Kinase inhibition assay: JNK3; conditions: 30µM Testsubstanz (100 µM ATP); read-out: Hemmung von Kinasen in % JNK3 (r)
Sequence of JNK3 (r) (P49187 whole entry): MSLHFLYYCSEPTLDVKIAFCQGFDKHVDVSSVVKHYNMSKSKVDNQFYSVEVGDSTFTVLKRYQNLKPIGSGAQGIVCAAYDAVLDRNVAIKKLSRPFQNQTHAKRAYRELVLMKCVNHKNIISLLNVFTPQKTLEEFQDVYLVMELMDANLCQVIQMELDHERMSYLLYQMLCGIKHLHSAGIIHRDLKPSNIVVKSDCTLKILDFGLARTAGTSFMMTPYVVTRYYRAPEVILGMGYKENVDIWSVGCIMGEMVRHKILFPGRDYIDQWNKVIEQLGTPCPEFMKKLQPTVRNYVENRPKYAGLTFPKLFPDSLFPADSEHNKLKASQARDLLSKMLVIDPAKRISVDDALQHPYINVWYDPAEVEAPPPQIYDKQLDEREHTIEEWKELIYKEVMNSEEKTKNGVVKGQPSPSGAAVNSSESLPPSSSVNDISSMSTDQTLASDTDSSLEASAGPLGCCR
Excerpt: as §1, §2

[10] = biological target: PKB (h) (Homo sapiens, UniProt P31749); assay: Kinase inhibition assay (33P-ATP, P30 filter, scintillation counting): PKB; conditions: 40 min; 30µM Testsubstanz (100 µM ATP); read-out: Hemmung von Kinasen in % PKB (h)
Sequence of PKB (h) (P31749 whole entry): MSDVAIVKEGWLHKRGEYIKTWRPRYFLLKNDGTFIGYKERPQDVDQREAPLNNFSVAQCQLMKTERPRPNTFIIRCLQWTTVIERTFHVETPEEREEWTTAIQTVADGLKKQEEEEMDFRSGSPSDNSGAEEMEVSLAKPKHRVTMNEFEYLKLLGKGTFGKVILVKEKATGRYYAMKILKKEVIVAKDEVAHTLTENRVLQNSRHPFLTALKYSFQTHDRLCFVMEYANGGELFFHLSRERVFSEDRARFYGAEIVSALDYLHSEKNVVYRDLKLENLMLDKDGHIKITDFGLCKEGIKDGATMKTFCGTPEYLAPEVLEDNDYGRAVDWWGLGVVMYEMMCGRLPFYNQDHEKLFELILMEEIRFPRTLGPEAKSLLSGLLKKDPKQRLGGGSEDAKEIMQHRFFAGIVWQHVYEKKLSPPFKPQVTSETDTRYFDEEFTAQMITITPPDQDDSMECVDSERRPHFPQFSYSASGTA
Description: as §1, §2
PKBα (h)(5-10mU) wird in einem Endreaktionsvolumen von 25 µl mit 8 mM MOPS pH 7.0, 0.2 mM EDTRA, 30 µM GRPRTSSFAEGKK, 10 mM MgAcetat und [γ-^33P-ATP] inkubiert (spezifische Aktivität etwa 50 cpm/pmol, Konzentration wie erforderlich). Die Reaktion wird durch Zugabe von Mg^2+[γ-^33P-ATP] initiiert. Nach 40-minütiger Inkubation bei Raumtemperatur wird die Reaktion durch Zugabe von 5 µl einer 3 %igen Phosphorsäurelösung gestoppt. 10 µl der Reaktion werden dann auf ein P30-Filter gegeben und dreimal jeweils 5 Minuten in 50 mM Phosphorsäure und einmal in Methanol gewaschen. Anschließend wird getrocknet und eine Szintillationszählung durchgeführt.

[11] = biological target: Lck (h) (Homo sapiens, UniProt P06239); assay: Kinase inhibition assay (33P-ATP, P30 filter, scintillation counting): Lck; conditions: 30µM Testsubstanz (100 µM ATP); read-out: Hemmung von Kinasen in % Lck (h)
Sequence of Lck (h) (P06239 whole entry): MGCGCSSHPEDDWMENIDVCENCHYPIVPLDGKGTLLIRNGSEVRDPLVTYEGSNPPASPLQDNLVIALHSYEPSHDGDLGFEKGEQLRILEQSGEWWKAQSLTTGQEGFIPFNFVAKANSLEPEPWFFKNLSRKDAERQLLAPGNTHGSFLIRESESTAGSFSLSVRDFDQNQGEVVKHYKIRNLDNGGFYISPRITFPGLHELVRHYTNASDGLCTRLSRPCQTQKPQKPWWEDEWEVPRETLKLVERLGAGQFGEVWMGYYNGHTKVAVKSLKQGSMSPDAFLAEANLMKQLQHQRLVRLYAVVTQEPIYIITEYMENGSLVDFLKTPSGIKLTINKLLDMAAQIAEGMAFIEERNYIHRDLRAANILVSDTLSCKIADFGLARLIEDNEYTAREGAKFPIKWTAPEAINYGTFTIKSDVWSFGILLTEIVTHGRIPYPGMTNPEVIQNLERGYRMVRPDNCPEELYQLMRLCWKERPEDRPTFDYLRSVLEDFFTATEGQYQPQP
Description: as §1, §2
as §3, with “Lck (h)(5-10 mU)” for “c-RAF (ha)(5-10 mU)”, “mit 50” for “mit 25”, “pH 7.5, 0.1” for “pH 7.5,.0.02”, “EGTA, 0.1 mM NaVanadate, 250 µM KVEKIGEGTYGVVYK (Cdc2 Peptid),” for “EGTA, 0.66 mg/ml Myelin-Basisprotein,”, “etwa 500” for “etwa 50”

Sequence of MAPK1 (h) (P27361 whole entry): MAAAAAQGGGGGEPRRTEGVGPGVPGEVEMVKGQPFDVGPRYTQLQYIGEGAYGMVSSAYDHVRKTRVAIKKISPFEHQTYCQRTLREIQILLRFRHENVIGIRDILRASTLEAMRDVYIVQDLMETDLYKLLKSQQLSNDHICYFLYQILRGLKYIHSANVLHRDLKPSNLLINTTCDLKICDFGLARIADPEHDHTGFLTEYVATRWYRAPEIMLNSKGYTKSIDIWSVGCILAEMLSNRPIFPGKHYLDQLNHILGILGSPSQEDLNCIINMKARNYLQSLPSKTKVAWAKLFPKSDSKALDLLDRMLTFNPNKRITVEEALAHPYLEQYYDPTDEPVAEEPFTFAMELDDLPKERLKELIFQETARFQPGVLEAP

Row | Compound | inhibition at 30 µM [1] | inhibition at 30 µM [2] | Hemmung von Kinasen in % PKA (h) [3] | Hemmung von Kinasen in % ROCKII (h) [4] | inhibition at 30 µM [5] | inhibition at 30 µM [6] | inhibition at 30 µM [7] | inhibition at 30 µM [8] | inhibition at 30 µM [9] | inhibition at 30 µM [10] | inhibition at 30 µM [11]
1 | Nc1ncnc2c1ncn2Cc1ccc(F)cc1 [Verbd. 42a, 9-(4-Fluoro-benzyl)-9H-purin-6-ylamin] | 17% | 7% | 1% | 5% | 7% | 11% | 7% | 25% | 17% | 0% | 19%
2 | Nc1ncnc2ncn(Cc3ccc(F)cc3)c12 [Verbd. 43, 7-(4-Fluoro-benzyl)-7H-purin-6-ylamin] | 26% | 8% | 7% | 6% | 8% | 5% | 0% | 28% | 25% | 0% | 0%
3 | COc1ncnc2ncn(Cc3ccc(F)cc3)c12 [Verbd. 44, 7-(4-Fluoro-benzyl)-6-methoxy-7H-purin] | 19% | 3% | 7% | 1% | 8% | 3% | 5% | 0% | 30% | 0% | 0%
4 | c1ccc(Sc2ncnc3[nH]ccc23)cc1 [Verbd. 52, 4-Phenylsulfanyl-7H-pyrrolo[2,3-d]pyrimidin] | 11% | 41% | 0% | 36% | 56% | 4% | 11% | 22% | 0% | 0% | 56%
5 | Fc1ccc(Sc2ncnc3[nH]ccc23)cc1 [Verbd. 53, 4-(4-Fluoro-phenylsulfanyl)-7H-pyrrolo[2,3-d]pyrimidin] | 10% | 36% | 0% | 42% | 79% | 2% | 4% | 43% | 5% | 0% | 52%
6 | Cn1c(-c2ccc([S+](C)[O-])cc2)nc2c(Sc3ccccc3)ncnc21 (stereo not shown) [Verbd. 59, 8-(4-Methansulfinyl-phenyl)-9-methyl-6-phenylsulfanyl-9H-purin] | 0% | 3% | 0% | 1% | 27% | 0% | 4% | 0% | 6% | 4% | 30%
7 | Cn1c(-c2ccc([S+](C)[O-])cc2)nc2c(Sc3ccc(F)cc3)ncnc21 (stereo not shown) [Verbd. 60, 6-(4-Fluoro-phenylsulfanyl)-8-(4-methan-sulfinyl-phenyl)-9-methyl-9H-purin] | 0% | 1% | 4% | 0% | 44% | 0% | 4% | 4% | 10% | 10% | 30%
8 | Cn1c(-c2ccc(S(C)(=O)=O)cc2)nc2c(Sc3ccccc3)ncnc21 [Verbd. 62, 8-(4-Methansulfonyl-phenyl)-9-methyl-6-phenylsulfanyl-9H-purin] | 9% | 4% | 11% | 5% | 36% | 3% | 0% | 10% | 7% | 14% | 16%
9 | C(=Cc1ncnc2[nH]cnc12)c1ccccc1 [Verbd. 72, 6-Styryl-9H-purin] | 50% | 7% | 4% | 22% | 17% | 20% | 20% | 66% | 2% | 7% | 37%
10 | c1ccc(Cn2cnc3c(Sc4ccccc4)ncnc32)cc1 [Verbd. 74, 9-Benzyl-6-phenylsulfanyl-9H-purin] | 0% | 6% | 0% | 1% | 64% | 0% | 1% | 0% | 0% | 1% | 0%
11 | Fc1ccc(Sc2ncnc3c2ncn3Cc2ccccc2)cc1 [Verbd. 75, 9-Benzyl-6-(4-fluoro-phenylsulfanyl)-9H-purin] | 0% | 4% | 0% | 5% | 64% | 0% | 0% | 0% | 0% | 1% | 16%

Reference: patent EP1444982A1, “The use of purine derivatives as selective kinase inhibitors” (MERCKLE GMBH, priority 2003, dated 2004)
